Patent publication US12377100B2 (GILEAD SCIENCES, INC., priority 2015, dated 2025)

What was measured:
IL12p40 = test: PBMC cytokine profiling assay, IL12-p40 induction; assay type: cell-based; details: human PBMCs, 24 hours incubation
Method in brief: (§1)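 Cryopreserved healthy-donor human PBMCs (100k cells/well) were exposed for 24 h at 37 °C to a 10-point half-log compound series in 0.5% final DMSO. Secreted cytokines in the conditioned medium were quantified by MSD electrochemiluminescence, with TNFα samples diluted 1:9. AC50 was fitted by non-linear regression on percent activation normalised to plate controls.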

TNFα = test: PBMC cytokine profiling assay, TNFα induction; assay type: cell-based; details: human PBMCs, 24 hours incubation
Method in brief: as §1

[1] = Cytotoxicity assay, Huh-7 cells, Cell Titer Glo, 5 days; assay type: cell-based, human; details: human, Huh-7 cells; Huh-7, five days incubation, intracellular ATP; read-out: CC50 HUH7 CTG 5D
Excerpt: (§2) To assess potential off-target toxicity of certain compounds disclosed herein, the in vitro cytotoxicity of those compounds was profiled using a panel of 5 cell lines with various tissue origins. Compound cytotoxicity was examined in hepatoma-derived Huh-7 and HepG2 cells, prostate carcinoma-derived PC-3 cells, lymphoma derived MT-4 cells and a normal diploid lung cell line MRC-5. HepG2 and PC-3 cells used were adapted to grow in glucose-free galactose-containing medium. These cells have a relatively higher sensitivity to inhibitors of mitochondrial oxidative phosphorylation compared to the same cells maintained in standard glucose-containing culture medium (Marroquin et al., Toxicol. Sci. 2007; 97 (2):539-47). Cell viability was determined by measuring intracellular ATP levels following five days of continuous incubation with test compounds.
(§3) The human hepatoma Huh-7 cell line was obtained from ReBLikon GmbH (Mainz, Germany) {20879}. The MT-4 cell line (HTLV-1 transformed, human T lymphoblastoid cells) was obtained from the NIH AIDS Reagent program (Bathesda, MD). The human hepatoblastoma cell line HepG2, human prostate carcinoma cell line PC-3, and normal fetal lung derived MRC-5 cells were obtained from the American Type Culture Collection (ATCC, Manassas, VA).
(§4) Huh-7 cells were maintained in Dulbecco's Modified Eagle Medium (DMEM) supplemented with 10% fetal bovine serum (FBS, Hyclone, Logan, UT), 1% non-essential amino acids (Gibco, Carlsbad, CA). PC-3 and HepG2 cells were adapted to grow in 0.2% galactose-containing, glucose-free Dulbecco's Modified Eagle Medium (DMEM) supplemented with 10% fetal bovine serum (FBS, Hyclone, Logan, UT), 1% non-essential amino acids (Gibco, Carlsbad, CA), 1% Pyruvate (Cellgro), 1% Glutamax (Invitrogen, Carlsbad, CA). Galactose-adapted cells were maintained in the same culture medium. MRC-5 cells were maintained in Eagle's Minimum Essential Medium (EMEM) supplemented with 10% fetal bovine serum (FBS, Hyclone, Logan, UT). MT-4 cells were maintained in RPMI-1640 supplemented with 10% fetal bovine serum (FBS, Hyclone, Logan, UT). All cell culture media were also supplemented with 100 Units/mL penicillin, 100 μg/mL streptomycin (Gibco).
(§5) Using a Biotek uFlow Workstation (Biotek, Winooski, VT), 1500 HepG2, 1500 PC-3, 500 Huh7 or 1500 MRC-5 cells in 90 μL of culture media were dispensed into each well of black polystyrene tissue culture-treated 384-well plates. Plated cells were incubated for 24 hours in an incubator at 37° C., 5% CO2 and 90% humidity. Compound serial dilutions were performed in 100% DMSO in 384-well polypropylene (high recovery) plates on a Biomek FX Workstation (Beckman Coulter, Fullerton, CA). After 3-fold serial dilutions, 0.4 μL of compounds were transferred into 384-well plates containing cells using a Velocity 11 system equipped with a Bravo 384-well pipettor. The DMSO concentration in the final assay plates was 0.44% (v/v). Cells were incubated with compound(s) for five days at 37° C. Puromycin (44 μM final concentration) and DMSO (0.44%, v/v) were used as a positive and negative controls, respectively
(§6) At the end of the incubation period the cytotoxicity assay was performed as follows: Media from 384-well cell culture plates were aspirated with a Biotek EL405 plate-washer (Biotek) and cells were washed with 100 μL PBS once. Twenty microliters of Cell Titer Glo (Promega, Madison, WI) was added to each well of the plates with a Biotek uFlow liquid dispenser. Plates were incubated for 15 minutes at room temperature before luminescence was measured with a Perkin Elmer Envision Plate Reader (Perkin Elmer, Waltham, MA).
(§7) CC50 values were defined as the compound concentration that caused a 50% decrease in luminescence signal, and were calculated by non-linear regression using Pipeline Pilot software by applying a four parameter fit equation (Accelrys, San Diego, CA). Individual CC50 values are listed as μM concentrations.

IFNα = test: PBMC cytokine profiling assay, IFNα induction; assay type: cell-based; details: human PBMCs, 24 hours incubation
Method in brief: as §1

[2] = Cytotoxicity assay, galactose-adapted HepG2 cells, Cell Titer Glo, 5 days; assay type: cell-based; details: human, galactose-adapted HepG2, five days incubation, intracellular ATP, read-out: CC50 GALHEPG2 CTG 5D
Excerpt: as §2, §3, §4, §5, §6, §7

[3] = MT-4 cytotoxicity assay, Cell Titer Glo, 5 days; assay type: cell-based, human; details: human, MT-4 cells; MT-4, five days incubation, intracellular ATP; read-out: CC50 (MT4)
Excerpt: as §2, §3, §4
(§8) For the MT-4 cytotoxicity assay, 0.4 μL of serially diluted compounds were added to 40 μl of cell maintenance media in 384-well black, solid bottom plate using a Biomek FX workstation (Beckman Coulter). Two thousand cells in 35 μL were added to each well using a Biotek uFlow Workstation (Biotek). Each assay plate contained 10 μM Puromycin (final concentration) and 0.5% DMSO in RPMI-1640 as positive and negative controls, respectively. Assay plates were incubated for five days at 37° C. in an incubator set at 5% CO2 and 90% humidity. After five days, 22 μL of Cell Titer Glo reagent (Promega) was added to the assay plates with a Biotek uFlow Workstation. Plates were subsequently placed on a Perkin Elmer Envision Plate Reader for five minutes before the luminescence signal was read.
as §7

MRC-5 cells = test: Cytotoxicity assay, MRC-5 cells, Cell Titer Glo, 5 days; assay type: cell-based, human; details: MRC-5, five days incubation, intracellular ATP; read-out: CC50 MRC5 CTG 5D
Excerpt: as §2, §3, §4, §5, §6, §7

Huh-7 cells = test: Cytotoxicity assay, Huh-7 cells, Cell Titer Glo, 5 days; assay type: cell-based, human; details: Huh-7, five days incubation, intracellular ATP; read-out: CC50 HUH7 CTG 5D
Excerpt: as §2, §3, §4, §5, §6, §7

[4] = Cytotoxicity assay, MRC-5 cells, Cell Titer Glo, 5 days; assay type: cell-based, human; details: human, MRC-5 cells; MRC-5, five days incubation, intracellular ATP; read-out: CC50 MRC5 CTG 5D
Excerpt: as §2, §3, §4, §5, §6, §7

[5] = Cytotoxicity assay, galactose-adapted PC-3 cells, Cell Titer Glo, 5 days; assay type: cell-based; details: human, galactose-adapted PC-3, five days incubation, intracellular ATP, read-out: CC50 GALPC3 CTG 5D
Excerpt: as §2, §3
as §4, with “(Gibco). […]” for “(Gibco).”
as §6, with “Twenty microliters of Cell Titer Glo (Promega, Madison, WI) was added to each well of the plates with a Biotek uFlow liquid dispenser.” left out, “MA). […]” for “MA).”

MT-4 cells = test: MT-4 cytotoxicity assay, Cell Titer Glo, 5 days; assay type: cell-based, human; details: MT-4, five days incubation, intracellular ATP; read-out: CC50 (MT4)
Excerpt: as §2, §3, §4, §8, §7

## CCCC[C@H](CO)Nc1nc(N)nc2cccnc12 [Example 15, (R)-2-((2-aminopyrido[3,2-d]pyrimidin-4-yl)amino)hexan-1-ol]
IL12p40; Homo sapiens, PBMC, 24 h
  AC50: 1.2 µM
TNFα; Homo sapiens, PBMC, 24 h
  AC50: 1.6 µM
[1]
  CC50 at 5 days: 10.7 µM
IFNα; Homo sapiens, PBMC, 24 h
  AC50: > 200 µM

## CCCC[C@](C)(CNC(C)=O)Nc1nc(N)nc2cc(Cl)cnc12 [Example 65, (R)—N-(2-((2-amino-7-chloropyrido[3,2-d]pyrimidin-4-yl)amino)-2-methylhexyl)acetamide]
[2]
  CC50 at 5 days: 44.4 µM
[3]
  CC50 at 5 days: 50 µM
IL12p40; Homo sapiens, PBMC, 24 h
  AC50: 0.09 µM
TNFα; Homo sapiens, PBMC, 24 h
  AC50: 0.11 µM
MRC-5 cells
  CC50: 44.4 µM
Huh-7 cells
  CC50: 44.4 µM
IFNα; Homo sapiens, PBMC, 24 h
  AC50: > 50 µM

## CCCC[C@](C)(CO)Nc1nc(N)nc2cccnc12 [Example 59, (R)-2-((2-aminopyrido[3,2-d]pyrimidin-4-yl)amino)-2-methylhexan-1-ol]
[2]
  CC50 at 5 days: 8.88 µM
[3]
  CC50 at 5 days: 31.4 µM
IL12p40; Homo sapiens, PBMC, 24 h
  AC50: 0.17 µM
TNFα; Homo sapiens, PBMC, 24 h
  AC50: 0.18 µM
[4]
  CC50 at 5 days: 40.3 µM
[5]
  CC50 at 5 days: 5.2 µM
[1]
  CC50 at 5 days: 35.4 µM
IFNα; Homo sapiens, PBMC, 24 h
  AC50: 15 µM

## CCCC[C@H](CO)Nc1nc(N)nc2ccsc12 [Y, reference compound]
[2]
  CC50 at 5 days: 0.19 µM
[3]
  CC50 at 5 days: 1.42 µM
IL12p40; Homo sapiens, PBMC, 24 h
  AC50: 13 µM
TNFα; Homo sapiens, PBMC, 24 h
  AC50: 11.2 µM
[4]
  CC50 at 5 days: 0.95 µM
[5]
  CC50 at 5 days: 0.18 µM
[1]
  CC50 at 5 days: 2.31 µM
IFNα; Homo sapiens, PBMC, 24 h
  AC50: > 50 µM

## CCCC[C@](C)(CNC(C)=O)Nc1nc(N)nc2c(C)ccnc12 [Example 62]
[2]
  CC50 at 5 days: 44.4 µM
MT-4 cells
  CC50: 19.2 µM
IL12p40; PBMC
  AC50: 0.91 µM
TNFα; PBMC
  AC50: 1 µM
MRC-5 cells
  CC50: 44.4 µM
Huh-7 cells
  CC50: 44.4 µM
IFNα; PBMC
  AC50: > 50 µM

## CCCC[C@](CO)(Nc1nc(N)nc2cccnc12)C(F)(F)F [Example 93, (R)-2-((2-aminopyrido[3,2-d]pyrimidin-4-yl)amino)-2-(trifluoromethyl)hexan-1-ol]
IL12p40; Homo sapiens, PBMC, 24 h
  AC50: 0.4 µM
TNFα; Homo sapiens, PBMC, 24 h
  AC50: 0.44 µM
[4]
  CC50 at 5 days: 38.8 µM
Huh-7 cells
  CC50: 44.4 µM
IFNα; Homo sapiens, PBMC, 24 h
  AC50: > 50 µM

## CCCC[C@@](C)(Nc1nc(N)nc2cccnc12)C(C)O (single isomer, unassigned) [Example 97]
[3]
  CC50 at 5 days: 50 µM
IL12p40
  AC50: 0.13 µM
TNFα
  AC50: 0.14 µM
MRC-5 cells
  CC50: 44.4 µM
Huh-7 cells
  CC50: 44.4 µM
IFNα
  AC50: 26 µM

## CCC[C@@H](CO)Nc1nc(N)nc2cc(F)c(F)cc12 [X, reference compound]
[2]
  CC50 at 5 days: 7.85 µM
[3]
  CC50 at 5 days: 53.8 µM
IL12p40; Homo sapiens, PBMC, 24 h
  AC50: 0.97 µM
TNFα; Homo sapiens, PBMC, 24 h
  AC50: 1.2 µM
[4]
  CC50 at 5 days: 20.9 µM
[5]
  CC50 at 5 days: 6.79 µM
[1]
  CC50 at 5 days: 16.9 µM
IFNα; Homo sapiens, PBMC, 24 h
  AC50: 7.1 µM

## CCCC[C@@](C)(CO)Nc1nc(N)nc2cc(F)cnc12 [Example 64, (S)-2-((2-amino-7-fluoropyrido[3,2-d]pyrimidin-4-yl)amino)-2-methylhexan-1-ol]
[3]
  CC50 at 5 days: 0.79 µM
IL12p40; Homo sapiens, PBMC, 24 h
  AC50: 3.2 µM
TNFα; Homo sapiens, PBMC, 24 h
  AC50: 3.1 µM
[5]
  CC50 at 5 days: 1.55 µM
IFNα; Homo sapiens, PBMC, 24 h
  AC50: 37.9 µM

## CCCC[C@](C)(CNC(C)=O)Nc1nc(N)nc2cc(F)cnc12 [Example 101, (R)—N-(2-((2-amino-7-fluoropyrido[3,2-d]pyrimidin-4-yl)amino)-2-methylhexyl)acetamide]
[2]
  CC50 at 5 days: 44.4 µM
[3]
  CC50 at 5 days: 50 µM
IL12p40; Homo sapiens, PBMC, 24 h
  AC50: 0.11 µM
TNFα; Homo sapiens, PBMC, 24 h
  AC50: 0.1 µM
MRC-5 cells
  CC50: 44.4 µM
Huh-7 cells
  CC50: 44.4 µM
IFNα; Homo sapiens, PBMC, 24 h
  AC50: > 50 µM
